Experimental data as given in US20260232661A1, “Compositions and Uses Thereof” (Purposeful IKE, priority 2020, published 2026).

Experiments:
Type in all cases: in vivo
Fmr1 KO mice [1] = test: Open field test (hyperactivity)
Procedure: (§1) Fmr1 KO mice backcrossed to the FVB strain and WT littermates were used during experiments. TransnetXY Automated Genotyping (www.transnetyx.com/). TRANSNETYX, INC., 8110 Cordova Rd. Suite 119, Cordova, TN 38016, USA was used for genotyping. The animals were pretreated for 14 days. The active ingredients of Sumatriptan and Ergoloid were in a water carrier, whereas oxitriptan was in a methanol carrier.
(§2) The mice were housed in plastic cages (35×30×12 cm), 5 in each. The room temperature (21±2° C.), relative humidity (55±5%), a 12-h light-dark cycle (lights on 7 a.m.-7 p.m.) and air exchange (16 times per h) were automatically controlled. The animals had free access to commercial food pellets and water. Testing was conducted during the light phase. Ten mice per treatment group were used for the AGS experiments. Experiments were conducted in line with the requirements of the UK Animals (Scientific Procedures) Act, 1986.
(§3) All experiments were conducted with the experimenter blind to genotype and drug treatment. Separate investigators prepared and coded dosing solutions, allocated the mice to the study treatment groups, dosed the animals, and collected the Audiogenic Seizure data.
(§4) Behavior testing was conducted at 2 weeks. The behavioral tests were as follows: 1. Hyperactivity: Open field; 2. Stereotypy: Self-grooming; 3. Sociability: Three chamber partition test; 4. Memory and Learning: Novel Object Recognition; 5. Anxiety: hyponeophagia; and 6. Test of daily living: marble burying
For hyperactivity, the open field test (OFT) is a common measure of exploratory behavior and general activity in both mice and rats, where both the quality and quantity of the activity can be measured. Principally, the open field (OF) is an enclosure, generally square, rectangular, or circular in shape with surrounding walls that prevent escape. The OFT is also commonly used as a mechanism to assess the sedative, toxic, or stimulant effects of compounds (Gould 2009).
(§5) The treatment of the mice with OX (Oxitriptan), SU (Sumatriptan), ER (Ergoloid mesylates, also referred to as ergoloid herein) were according to the matrix shown below in Table 1.
(§6) The experimental procedures described above for Example 1 were used in the following tests, as well as the addition of two further behaviour tests as described below. An SSRI (selective serotonin re-uptake inhibitor) was co-dosed with the ergoloid mesylates and oxitriptan to assess the effect of the ergoloid mesylates and oxitriptan treatment on a subject already receiving SSRI treatment.
(§7) The treatment of the mice with OX (Oxitriptan), ER (Ergoloid mesylates) and FL (fluvoxamine) were according to the matrix shown below in Table 21. The triple combination involved dosing of 2 mg/kg ergoloid mesylates, 40 mg/kg oxitriptan and 40 mg/kg of fluvoxamine (the SSRI).

Fmr1 KO mice [2] = test: Self-grooming (stereotypy); conditions: Dunnett's test, alpha 0.05; doses as E31
Procedure: as §1, §2, §3
Behavior testing was conducted at 2 weeks. The behavioral tests were as follows: 1. Hyperactivity: Open field; 2. Stereotypy: Self-grooming; 3. […]
For stereotypy, self-grooming was assessed. […]

Fmr1 KO mice [3] = test: Novel Object Recognition (memory and learning); set-up: Mean Diff., N_WT-V vs. treated KO (NOR) / Mean 2, treated KO group (NOR) / Mean Diff., F_KO-V vs. F_KO treated (NOR) / Mean Diff., F_KO-V vs. N_KO treated (NOR) / Mean 2, F_KO treated group (NOR) / Mean 2, N_KO treated group (NOR): unit not given here
Procedure: as §1, §2, §3, §4
For memory and learning, a novel object recognition (NOR) task was used to evaluate the rodents' ability to recognize a novel object in the environment. […] The task procedure consists of three phases: habituation, familiarization, and test phase (Antunes 2012).
(§8) The treatment of the mice with OX (Oxitriptan), SU (Sumatriptan), ER (Ergoloid mesylates, also referred to as ergoloid herein) were according to the matrix shown below in Table 1. […]

Fmr1 KO mice [4] = test: Three chamber partition test (sociability); set-up: Mean Diff., N_WT-V vs. treated KO (Sociability) / Mean 2, treated KO group (Sociability) / Mean Diff., F_KO-V vs. F_KO treated (Sociability) / Mean Diff., F_KO-V vs. N_KO treated (Sociability) / Mean 2, F_KO treated group (Sociability) / Mean 2, N KO treated group (Sociability) / Mean 2, N_KO treated group (Sociability) / Data table Sociability, F_KO-Sumatriptan / Data table Sociability, N_KO-Sumatriptan / Data table Sociability, F_KO-Oxitriptan: unit not given here
Procedure: as §1, §2, §3, §4
For sociability a three chamber partition test was utilized. The three-chamber paradigm test known as Crawley's sociability and preference for social novelty protocol has previously been successfully employed to study social affiliation and social memory in several inbred and mutant mouse lines. The main principle of the test was based on the free choice by a subject mouse to spend time in any of three box's compartments during two experimental sessions, including indirect contact with one or two mice with which it was unfamiliar (Kaidanovich-Beilin 2011).
as §8

Fmr1 KO mice [5] = test: Hyponeophagia test (anxiety)
Procedure: as §1, §2, §3, §4
For anxiety a hyponeophagia test was conducted. Mice and rats cannot vomit, due to the tightness of the cardiac sphincter of the stomach, so to overcome the problem of potential food toxicity they have evolved a strategy of first ingesting only very small amounts of novel substances. The amounts ingested then gradually increase until the animal has determined whether the substance is safe and nutritious. So the old rat-catchers would first put a palatable substance such as oatmeal, which was to be the vehicle for the toxin, in the infested area (Deacon 2011).
as §5, §6, §7

Fmr1 KO mice [6] = test: Test of daily living (nesting; marble burying)
Procedure: as §1, §2, §3, §4
For test of daily living, nesting was assessed as nest building is an innate behavior in rodents, even when raised in laboratory settings. Synthetic and/or natural materials (such as twine, tissue, cotton, paper, and hay) are provided as a gauge of their overall well-being and as an ancillary assessment to predict the possible decline in cognition. Typically, changes in nesting behaviors, such as failure to create a nest, indicate a change in health or welfare. In addition, nesting behavior is sensitive to many environmental and physiological challenges, as well as many genetic mutations underlying pathological disease states (Gaskill 2013).
as §5, §6, §7

[7] = KO mice, mg/kg: Sumatriptan 20, Oxitriptan 40, Ergoloid 4, Ergoloid 2+Sumatriptan 10, Ergoloid 2+Oxitriptan 40

Question: With `N[C@@H](Cc1c[nH]c2ccc(O)cc12)C(=O)O` [Oxitriptan] as the compound, how does the “Below threshold? WT-V vs. treated KO (Open Field)” value (Fmr1 KO mice [1]; Dunnett's test, alpha 0.05, doses as E1) read?
Answer: Yes

Question: And the “Significant? KO-V vs. treated KO (Open Field)” value (Fmr1 KO mice [1]; Dunnett's test, alpha 0.05, doses as E26)?
Answer: Yes

Question: What about the “Mean Diff., WT-V vs. treated KO (Open Field)” value (Fmr1 KO mice [1]; KO mice, mg/kg: Sumatriptan 20, 5-HTP 80, EM 4, Ergoloid 2+Sumatriptan 10, Ergoloid 2+Oxitriptan 40) of the same compound?
Answer: −512.4

Question: What about the “Significant? KO-V vs. treated KO (Stereotypy)” value (Fmr1 KO mice [2]) of the same compound?
Answer: Yes

Question: And the “Significant? F_KO-V vs. F_KO treated (NOR)” value (Fmr1 KO mice [3]; Dunnett's test, alpha 0.05, F_ groups, doses as E46)?
Answer: No

Question: And the “Significant? F_KO-V vs. N_KO treated (NOR)” value (Fmr1 KO mice [3]; Dunnett's test, alpha 0.05, N_ groups, doses as E51)?
Answer: Yes

Question: What about the “Significant? N_WT-V vs. treated KO (NOR)” value (Fmr1 KO mice [3]; Dunnett's test, alpha 0.05, groups and doses as E16) of the same compound?
Answer: Yes

Question: And the “Summary, F_KO-V vs. F_KO treated (NOR)” value (Fmr1 KO mice [3]; Dunnett's test, F_ groups, doses as E46)?
Answer: ns

Question: What about the “Mean 2, F_KO treated group (NOR)” value (Fmr1 KO mice [3]; comparison against F_KO-V, doses as E46) of the same compound?
Answer: 5.636

Question: And the “Significant? F_KO-V vs. F_KO treated (Sociability)” value (Fmr1 KO mice [4]; Dunnett's test, alpha 0.05, F_ groups, doses as E56)?
Answer: Yes

Question: And the “Significant? F_KO-V vs. N_KO treated (Sociability)” value (Fmr1 KO mice [4]; Dunnett's test, alpha 0.05, N_ groups, doses as E61)?
Answer: Yes

Question: And the “Significant? N_WT-V vs. treated KO (Sociability)” value (Fmr1 KO mice [4]; Dunnett's test, alpha 0.05, groups and doses as E21)?
Answer: No

Question: And the “Summary, N_WT-V vs. treated KO (Sociability)” value (Fmr1 KO mice [4]; Dunnett's test, groups and doses as E21)?
Answer: ns

Question: What about the “Data table Sociability, F_KO-Oxitriptan” value (Fmr1 KO mice [4]; F_, KO mice, Oxitriptan 40 mg/kg, individual animals) of the same compound?
Answer: 51

Question: And the “Mean Diff., F_KO-V vs. N_KO treated (Sociability)” value (Fmr1 KO mice [4]; N_ groups, mg/kg: Sumatriptan 20, Oxitriptan 40, Ergoloid 4, Ergoloid 2+Oxitriptan 40)?
Answer: −17.20

Question: What about the “Mean Diff., N_WT-V vs. treated KO (Sociability)” value (Fmr1 KO mice [4]; N_ groups, mg/kg: Sumatriptan 20, Oxitriptan 40, Ergoloid 4, F_KO Ergoloid 2+Sumatriptan 10, N_KO Ergoloid 2+Oxitriptan 40) of the same compound?
Answer: 0.3000

Question: What about the “Mean 2, N_KO treated group (Sociability)” value (Fmr1 KO mice [4]; comparison against F_KO-V, doses as E61) of the same compound?
Answer: 95.80

Question: And the “Mean 2, treated KO group (Sociability)” value (Fmr1 KO mice [4]; comparison against N_WT-V, groups and doses as E21)?
Answer: 98.80

Question: What about the “Significant? WT-V vs. treated KO (Hyponeophagia)” value (Fmr1 KO mice [5]; Dunnett's test, alpha 0.05, doses as E6) of the same compound?
Answer: No

Question: And the “Significant? KO-V vs. treated KO (Hyponeophagia)” value (Fmr1 KO mice [5]; Dunnett's test, alpha 0.05, doses as E36)?
Answer: Yes

Question: And the “Summary, WT-V vs. treated KO (Hyponeophagia)” value (Fmr1 KO mice [5]; Dunnett's test, doses as E6)?
Answer: ns

Question: And the “Mean Diff., WT-V vs. treated KO (Hyponeophagia)” value (Fmr1 KO mice [5]; [7])?
Answer: −0.7000

Question: What about the “Significant? WT-V vs. treated KO (Test of daily living)” value (Fmr1 KO mice [6]; Dunnett's test, alpha 0.05, doses as E11) of the same compound?
Answer: No

Question: And the “Significant? KO-V vs. treated KO (Test of daily living)” value (Fmr1 KO mice [6]; Dunnett's test, alpha 0.05, doses as E41)?
Answer: Yes

Question: And the “Summary, WT-V vs. treated KO (Test of daily living)” value (Fmr1 KO mice [6]; Dunnett's test, doses as E11)?
Answer: ns

Question: And the “Mean Diff., KO-V vs. treated KO (Test of daily living)” value (Fmr1 KO mice [6]; KO mice, mg/kg: Sumatriptan 20, Oxitriptan 40, Ergoloid 4, Ergoloid 2+Oxitriptan 40)?
Answer: −3.700

Question: What about the “Mean Diff., WT-V vs. treated KO (Test of daily living)” value (Fmr1 KO mice [6]; [7]) of the same compound?
Answer: −0.1000

Question: And the “Mean 2, treated KO group (Test of daily living)” value (Fmr1 KO mice [6]; comparison against KO-V, doses as E41)?
Answer: 4.900

Question: What about the “Mean 2, treated KO group (Test of daily living)” value (Fmr1 KO mice [6]; comparison against WT-V, doses as E11) of the same compound?
Answer: 4.900
